Non-standard residues stand in square brackets, D forms with d. Residues, ends and D or L forms follow the SMILES beside them. 3Amb = NCc1cccc(C(=O)O)c1; 4Abz = Nc1ccc(C(=O)O)cc1; Ava = NCCCCC(=O)O
Assays:
Plasmodium falciparum [1] = experiment: Antiplasmodial activity against asexual blood stage chloroquine-sensitive Plasmodium falciparum 3D7 assessed as parasite growth inhibition by image-based assay; format: functional, organism-based
Plasmodium falciparum [2] = experiment: Antiplasmodial activity against Plasmodium falciparum assessed as parasite growth inhibition; format: functional, organism-based
Plasmodium falciparum [3] = experiment: Antiplasmodial activity against asexual blood stage chloroquine-sensitive Plasmodium falciparum 3D7 assessed as parasite growth inhibition at 40 uM by image-based assay relative to control; format: functional
Plasmodium falciparum [4] = experiment: Antiplasmodial activity against asexual blood stage chloroquine-sensitive Plasmodium falciparum 3D7 assessed as parasite growth inhibition at 2 uM by image-based assay relative to control; format: functional

Row | SMILES | IC50 (Plasmodium falciparum [1]) [µM] | IC50 (Plasmodium falciparum [2]) [µM] | inhibition at 40 µM (Plasmodium falciparum [3]) [%] | inhibition at 2 µM (Plasmodium falciparum [4]) [%]
1 | CC[C@H](C)[C@@H]1NC(=O)[C@H]([C@@H](C)O)NC(=O)CNC(=O)CNC(=O)[C@H](Cc2ccccc2)NC(=O)CNC(=O)[C@H](Cc2ccccc2)NC(=O)[C@H]([C@@H](C)CC)NC1=O (cyclo(FGFGGTII)) | 25 | 16 | 78 | 
2 | CC(C)C[C@@H]1NC(=O)CNC(=O)[C@H](CC(C)C)NC(=O)[C@@H]2CCCN2C(=O)[C@H](Cc2ccc(O)cc2)NC(=O)[C@H](CC(C)C)NC(=O)[C@H](CC(C)C)NC1=O (cyclo(GLLLYPL)) |  | 25 |  | 
3 | CC(C)C[C@@H]1NC(=O)[C@H](CC(C)C)NC(=O)[C@H](C(C)C)NC(=O)CNC(=O)[C@H](CC(C)C)NC(=O)[C@@H]2CCCN2C(=O)[C@H](Cc2ccc(O)cc2)NC1=O (cyclo(GVLLYPL)) |  | 57 |  | 
4 | CC[C@H](C)[C@@H]1NC(=O)[C@H]([C@@H](C)O)NC(=O)c2cccc(c2)CNC(=O)[C@H](Cc2ccccc2)NC(=O)CNC(=O)[C@H](Cc2ccccc2)NC(=O)[C@H]([C@@H](C)CC)NC1=O (cyclo([3Amb]TIIFGF)) | 4 |  | 86 | 
5 | CC[C@H](C)[C@@H]1NC(=O)[C@H]([C@@H](C)O)NC(=O)c2ccc(cc2)NC(=O)[C@H](Cc2ccccc2)NC(=O)CNC(=O)[C@H](Cc2ccccc2)NC(=O)[C@H]([C@@H](C)CC)NC1=O (cyclo([4Abz]TIIFGF)) |  |  | 12 | 
6 | CC[C@H](C)[C@@H]1NC(=O)[C@H]([C@@H](C)O)NC(=O)CCCCNC(=O)[C@H](Cc2ccccc2)NC(=O)CNC(=O)[C@H](Cc2ccccc2)NC(=O)[C@H]([C@@H](C)CC)NC1=O (cyclo([Ava]TIIFGF)) | 23 |  | 87 | 
7 | C[C@@H]1CC[C@H]2[C@@H](C)C(=O)O[C@@H]3O[C@@]4(C)CC[C@@H]1[C@]32OO4 [ARTEMISININ] | 0.013 |  |  | 100
